This passage reports Ki results from ChEMBL document CHEMBL5728527, “Naphthyridines as inhibitors of HPK1” (2021).

Several values for one entry are separate records, joined by “and”; a condition that tells them apart may be missing. Equal values may be shown once.

In the test the target is Mitogen-activated protein kinase kinase kinase kinase 1 (Homo sapiens, UniProt Q92918). Briefly: Binding Assay: Lanth: For the binding assay, 4 ul 2×HPK1 and Eu-anti-GST antibody were added to each well of the assay plate using a Multidrop reagent dispenser. The solutions were incubated in a 23 C incubator for 1 h. To each well of the assay plate was added 4 ul 2× Tracer-222 using a Multidrop reagent dispenser. The solutions were again incubated in a 23 C incubator for 1 h. The results of the assay were read using an Envision plate reader with the following parameters: TR_FRET, 340ex/615 and 665em; 100 usec Delay; and 200 usec integration.
Sequence of Mitogen-activated protein kinase kinase kinase kinase 1 (Q92918 whole entry): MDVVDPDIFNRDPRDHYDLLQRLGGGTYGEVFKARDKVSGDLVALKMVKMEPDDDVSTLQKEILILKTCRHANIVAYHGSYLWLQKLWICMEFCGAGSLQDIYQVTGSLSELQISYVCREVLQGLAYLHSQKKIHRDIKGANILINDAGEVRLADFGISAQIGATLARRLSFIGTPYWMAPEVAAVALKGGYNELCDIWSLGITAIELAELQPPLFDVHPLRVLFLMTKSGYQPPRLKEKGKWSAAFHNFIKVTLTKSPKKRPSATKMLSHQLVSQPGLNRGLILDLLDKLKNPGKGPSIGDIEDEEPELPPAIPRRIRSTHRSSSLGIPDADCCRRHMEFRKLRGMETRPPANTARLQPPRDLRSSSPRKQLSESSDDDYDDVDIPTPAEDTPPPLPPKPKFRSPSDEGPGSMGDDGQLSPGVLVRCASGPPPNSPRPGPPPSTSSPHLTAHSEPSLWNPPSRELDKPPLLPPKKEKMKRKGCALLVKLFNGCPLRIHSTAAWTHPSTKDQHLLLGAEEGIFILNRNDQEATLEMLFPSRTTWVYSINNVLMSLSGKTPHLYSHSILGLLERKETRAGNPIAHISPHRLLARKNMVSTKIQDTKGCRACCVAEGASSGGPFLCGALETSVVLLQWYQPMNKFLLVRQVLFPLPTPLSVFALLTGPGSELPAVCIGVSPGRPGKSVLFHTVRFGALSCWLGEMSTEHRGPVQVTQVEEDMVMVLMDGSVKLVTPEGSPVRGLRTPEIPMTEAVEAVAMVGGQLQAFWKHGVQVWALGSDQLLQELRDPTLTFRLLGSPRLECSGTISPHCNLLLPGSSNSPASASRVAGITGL
The Ki is a measure of affinity in units of concentration, obtained from inhibition or displacement. A higher Ki goes with weaker binding. Turning to `Cc1ccncc1-c1cc2cc(NC(=O)[C@H]3C[C@@H]3CC#N)ncc2c(N)n1` (racemic), the affinity corresponds to a Ki of 0.57 nM.

In turn, `CCc1ccncc1-c1cc2cc(NC(=O)[C@@H]3C[C@H]3C(=O)C3CC(O)C3)ncc2c(N)n1` (mixture of isomers) had a Ki of 163 nM.

`Cc1ccncc1-c1cc2cc(NC(=O)[C@H]3[C@@H]4COC[C@@H]43)ncc2c(N)n1` (single isomer, unassigned) yielded a Ki of 4.9 nM.

In turn, `Cc1cc(-c2ccn(C)n2)ncc1-c1cc2cc(NC(=O)[C@H]3C[C@@H]3c3cnn(C)c3)ncc2c(N)n1` gave an inhibition constant Ki of 2.26 nM.

Regarding `Cc1ccncc1-c1nc(N)c2cnc(NC(=O)[C@@H]3C[C@H]3c3cn[nH]c3)cc2c1F` (racemic), the Ki was 0.19 nM.

In the case of `CCc1ccncc1-c1cc2cc(NC(=O)[C@H]3C[C@@H]3C#N)ncc2c(N)n1`, the Ki is 1.31 nM and 0.583 nM.

Molecule `Cn1cc([C@H]2C[C@@H]2C(=O)Nc2cc3cc(-c4cnc(N)c(C(F)(F)F)c4)nc(N)c3cn2)cn1` (racemic) showed a Ki of 11.8 nM.

In the case of `Cc1cc(C)c(-c2cc3cc(NC(=O)[C@@H]4C[C@H]4C#N)ncc3c(N)n2)cc1C(N)=O` (racemic), the Ki is 89 nM.

`Cc1cc2c(cc1-c1cc3cc(NC(=O)[C@@H]4C[C@@H]4F)ncc3c(N)n1)CC(=O)N2` (racemic): the Ki worked out at 2.81 nM.

Turning to `CC(=O)OC[C@@]1(C)C[C@@H]1C(=O)Nc1cc2cc(-c3cnccc3C)nc(N)c2cn1` (racemic), the affinity corresponds to a Ki of 17.1 nM.

The molecule `Cc1ccncc1-c1nc(N)c2cnc(NC(=O)[C@H]3C[C@@H]3C#N)cc2c1F` (racemic) gave an inhibitory constant (Ki) of 4.4 nM.

`CC(O)Cc1ccncc1-c1cc2cc(NC(=O)[C@H]3C[C@@H]3C#N)ncc2c(N)n1` (mixture of isomers) yielded a Ki of 7.28 nM.

Regarding `Cc1ccncc1-c1cc2cc(NC(=O)[C@@H]3C[C@H]3c3cc[nH]n3)ncc2c(N)n1` (racemic), the Ki is 0.58 nM.

Molecule `Cc1ccncc1-c1cc2cc(NC(=O)[C@@H]3C[C@@H]3F)ncc2c(N)n1` (racemic) had a Ki of 0.38 nM.

As to `Cc1cc(C(=O)N(C)C)ncc1-c1cc2cc(NC(=O)[C@H]3C[C@@H]3c3cnn(C)c3)ncc2c(N)n1` (racemic), the inhibitory constant (Ki) was 6.14 nM.

The molecule `Cc1cc(C(C)(C)O)ncc1-c1cc2cc(NC(=O)[C@@H]3C[C@@H]3F)ncc2c(N)n1` (racemic) came in with an inhibitory constant (Ki) of 41.7 nM.

Turning to `Cc1ccncc1-c1cc2cc(NC(=O)[C@H]3C[C@@H]3CO)ncc2c(N)n1` (racemic), the Ki was 1.1 nM.

`Cc1cnc(C#N)cc1-c1cc2cc(NC(=O)[C@@H]3C[C@@H]3F)ncc2c(N)n1` (racemic) gave a Ki of 22.5 nM.

`Cc1cc(C(=O)NCC(F)(F)F)ccc1-c1cc2cc(NC(=O)[C@@H]3C[C@H]3C#N)ncc2c(N)n1` (relative stereo): the inhibition constant (Ki) came to 8.1 nM.

`Cc1c(-c2cc3cc(NC(=O)[C@H]4C[C@@H]4C#N)ncc3c(N)n2)cncc1C(F)F` (racemic) gave an inhibition constant (Ki) of 39 nM.

Consider `CCc1ccncc1-c1cc2cc(NC(=O)[C@@H]3C[C@@H]3C(N)=O)ncc2c(N)n1` (racemic), for which the inhibition constant (Ki) is 25.8 nM.

Molecule `Cc1cc2[nH]cnc2cc1-c1cc2cc(NC(=O)[C@@H]3C[C@@H]3F)ncc2c(N)n1` (racemic) showed a Ki of 7.9 nM.

In turn, `N#C[C@@H]1C[C@H]1C(=O)Nc1cc2cc(-c3cnccc3C(F)(F)F)nc(N)c2cn1` (racemic) registered an inhibition constant Ki of 6.49 nM.

The molecule `Cc1c(N)cncc1-c1cc2cc(NC(=O)[C@H]3C[C@@H]3C(F)(F)F)ncc2c(N)n1` (racemic) registered an inhibition constant Ki of 1.1 nM.

Take `N#CC[C@H]1C[C@@H]1C(=O)Nc1cc2cc(-c3cnccc3CCO)nc(N)c2cn1` (racemic): the Ki came to 0.501 nM.

The molecule `Cc1ccncc1-c1cc2cc(NC(=O)C(C)C)ncc2c(N)n1` showed an inhibitory constant (Ki) of 29.8 nM.

The molecule `Cc1ccncc1-c1cc2cc(NC(=O)[C@H]3[C@@H]4CC(N5CCOCC5)C[C@@H]43)ncc2c(N)n1` (stereo partly specified) displayed an inhibition constant Ki of 0.972 nM.

Turning to `Cc1ccncc1-c1cc2cc(NC(=O)[C@@H]3C[C@]34CCNC4)ncc2c(N)n1` (racemic), the inhibitory constant (Ki) came out at 6.8 nM.

`CC(=O)OC[C@]1(C)C[C@@H]1C(=O)Nc1cc2cc(-c3cnccc3C)nc(N)c2cn1` (racemic) came in with an inhibition constant (Ki) of 14.6 nM.

On to `CCOc1ccncc1-c1cc2cc(NC(=O)[C@H]3C[C@@H]3C#N)ncc2c(N)n1` (racemic), for which the affinity, expressed as Ki, was 0.98 nM.

`Cc1ccncc1-c1cc2cc(Nc3cnn([C@H]4CN(C5COC5)CC[C@@H]4O)c3)ncc2c(N)n1` (racemic) registered a Ki of 0.567 nM.

Turning to `C[C@@H]1C[C@H]1C(=O)Nc1cc2cc(-c3cnn(C)c3)nc(N)c2cn1` (racemic), the affinity corresponds to a Ki of 1.85 nM.

Molecule `CCc1ccncc1-c1cc2cc(NC(=O)[C@@H]3C[C@H]3C#N)ncc2c(N)n1` (single isomer, unassigned) returned a Ki of 7.36 nM.

Molecule `Cc1ccncc1-c1nc(N)c2cnc(NC(=O)[C@@H]3C[C@H]3c3cn[nH]c3)cc2c1Cl` (racemic) displayed a Ki of 0.047 nM.

As for `Cc1cc(-n2cccn2)ncc1-c1cc2cc(NC(=O)[C@H]3C[C@@H]3c3cnn(C)c3)ncc2c(N)n1`, the affinity, expressed as Ki, was 3.3 nM.

`COC1CN([C@H]2C[C@@H]3[C@H](C2)[C@H]3C(=O)Nc2cc3cc(-c4cnccc4C)nc(N)c3cn2)C1` showed an inhibition constant (Ki) of 2.14 nM.

Molecule `CCc1cc(N)ncc1-c1cc2cc(NC(=O)[C@@H]3C[C@@H]3F)ncc2c(N)n1` (racemic) had an inhibition constant (Ki) of 5.76 nM.

`Cc1ccncc1-c1cc2cc(NC(=O)[C@@H]3C[C@H]3CN)ncc2c(N)n1` (racemic): the affinity, expressed as Ki, was 2.4 nM.

On to `Cc1cc(C(=O)OCc2ccccc2)ncc1-c1cc2cc(NC(=O)[C@H]3C[C@@H]3c3cnn(C)c3)ncc2c(N)n1` (racemic), for which the inhibitory constant (Ki) worked out at 1.17 nM.

For the molecule `Cc1ccncc1-c1cc2cc(NC(=O)[C@H]3[C@@H](C)[C@@H]3CC#N)ncc2c(N)n1`, the inhibition constant Ki worked out at 0.763 nM.

As to `Cn1ccc2cncc(-c3cc4cc(NC(=O)[C@@H]5C[C@@H]5F)ncc4c(N)n3)c21` (racemic), affinity was put at a Ki of 101 nM.

The molecule `CCc1cc(OC)ncc1-c1cc2cc(NC(=O)[C@@H]3C[C@@H]3F)ncc2c(N)n1` (racemic) yielded a Ki of 4.88 nM.

`Cc1ccncc1-c1cc2cc(NC(=O)[C@H]3C[C@@H]3c3ncccn3)ncc2c(N)n1` (racemic) had an inhibition constant Ki of 10 nM.

As for `Cc1ccncc1-c1cc2cc(NC(=O)[C@@H]3C[C@H]3c3cnsc3)ncc2c(N)n1` (racemic), the Ki amounted to 0.15 nM.

`COC(=O)c1cc(C)c(-c2cc3cc(NC(=O)[C@H]4C[C@@H]4c4cnn(C)c4)ncc3c(N)n2)cn1`: the inhibition constant Ki is 0.509 nM.

Take `Cc1nn(C)c(C)c1-c1cc2cc(NC(=O)[C@H]3C[C@@H]3C(F)(F)F)ncc2c(N)n1` (racemic): the inhibitory constant (Ki) stood at 12 nM.

`Cc1ccncc1-c1cc2cc(NC(=O)[C@@H]3C[C@H]3c3cnn(C)c3)ncc2c(N)n1` (racemic) yielded an inhibitory constant (Ki) of 0.23 nM.

Turning to `Cc1ccncc1-c1cc2cc(NC(=O)C3C[C@@H]3C(F)(F)F)ncc2c(N)n1` (stereo partly specified), the Ki amounted to 1.42 nM.

`C=Cc1c(-c2cnccc2C)nc(N)c2cnc(NC(=O)[C@H]3C[C@@H]3CC#N)cc12` (racemic) displayed an inhibition constant Ki of 0.225 nM.

Regarding `Cc1ccncc1-c1cc2cc(NC(=O)[C@@H]3[C@@H](C)[C@H]3CC#N)ncc2c(N)n1`, the affinity, expressed as Ki, was 0.837 nM.

`Cc1ccncc1-c1cc2cc(NC(=O)[C@@H]3[C@H](C)[C@H]3CC#N)ncc2c(N)n1` had a Ki of 0.188 nM.

In turn, `Cc1ccncc1-c1cc2cc(NC(=O)[C@@H]3C[C@H]3C(F)(F)F)ncc2c(N)n1` (racemic) showed an inhibition constant Ki of 1.4 nM.

As to `Nc1nc(-c2cncc3c2OCC(=O)N3)cc2cc(NC(=O)[C@@H]3C[C@@H]3F)ncc12` (racemic), the affinity, expressed as Ki, was 1.77 nM.

In turn, `Cc1ccnc(C)c1-c1cc2cc(NC(=O)[C@@H]3C[C@@H]3F)ncc2c(N)n1` (racemic) returned an inhibition constant (Ki) of 5.03 nM.

The molecule `Cc1cnc(CO)cc1-c1cc2cc(NC(=O)[C@@H]3C[C@@H]3F)ncc2c(N)n1` (racemic) returned an inhibition constant Ki of 18.3 nM.

As to `Cc1ccncc1-c1cc2cc(NC(=O)[C@@H]3C[C@H]3F)ncc2c(N)n1` (single isomer, unassigned), affinity was put at a Ki of 2.8 nM.

Take `CCc1ccncc1-c1cc2cc(NC(=O)[C@H]3C[C@H]3C#N)ncc2c(N)n1` (single isomer, unassigned): the Ki was 3.64 nM.

On to `Cc1ccncc1-c1cc2cc(NC(=O)[C@H]3[C@H](C)[C@@H]3CC#N)ncc2c(N)n1`, for which the affinity corresponds to a Ki of 6.01 nM.

Regarding `CCc1ccncc1-c1cc2cc(NC(=O)[C@@H]3C[C@@H]3C#N)ncc2c(N)n1`, the inhibitory constant (Ki) is 10.6 nM and 3.21 nM.

Consider `Cc1ccnc(-c2ccccc2)c1-c1cc2cc(NC(=O)[C@H]3C[C@@H]3CC#N)ncc2c(N)n1` (racemic), for which the inhibition constant Ki was found to be 0.051 nM.

Consider `Cc1c[nH]c(=O)cc1-c1cc2cc(NC(=O)[C@@H]3C[C@@H]3F)ncc2c(N)n1` (racemic), for which the Ki came to 6.5 nM.

Consider `Cn1cc([C@H]2C[C@@H]2C(=O)Nc2cc3cc(-c4cnc5c(=O)n(C)ncc5c4)nc(N)c3cn2)cn1` (racemic), for which the inhibitory constant (Ki) stood at 3.14 nM.

`Cc1cc(N2CCC2=O)ncc1-c1cc2cc(NC(=O)[C@H]3C[C@@H]3c3cnn(C)c3)ncc2c(N)n1` gave a Ki of 1.73 nM.

For `Cc1ccncc1-c1cc2cc(NC(=O)[C@@H]3C[C@@H]3C)ncc2c(N)n1` (racemic), the affinity corresponds to a Ki of 2.3 nM.

Turning to `CCC1CCCN1c1cc2cc(NC(=O)[C@H]3C[C@H]3F)ncc2c(N)n1` (mixture of isomers), the Ki came to 172 nM.

Turning to `Cc1ccc(F)cc1-c1cc2cc(NC(=O)[C@H]3C[C@@H]3c3cnn(C)c3)ncc2c(N)n1` (racemic), the Ki was 0.113 nM.

As to `Nc1nc(-c2cncc3c2OCCN3)cc2cc(NC(=O)[C@@H]3C[C@@H]3F)ncc12` (racemic), the inhibition constant (Ki) is 0.135 nM.

For `Cc1ncc(-c2cc3cc(NC(=O)[C@@H]4C[C@H]4C#N)ncc3c(N)n2)n1C` (relative stereo), the Ki was 18.9 nM.

Regarding `CCC1CCCN1c1cc2cc(NC(=O)[C@@H]3C[C@@H]3F)ncc2c(N)n1` (mixture of isomers), the Ki was 11.7 nM and 10.3 nM.

`Nc1nc(-c2cncc3c2CCN3)cc2cc(NC(=O)[C@@H]3C[C@@H]3F)ncc12` (racemic) displayed an inhibition constant (Ki) of 0.154 nM.

In turn, `Cc1[nH]ncc1-c1cc2cc(NC(=O)[C@@H]3C[C@H]3C(F)(F)F)ncc2c(N)n1` (racemic) displayed a Ki of 16 nM.
